We go through two compounds from publication PMC12044245 (Emerging Infectious Diseases, 2025).

In assay [1] the test system is recombinant A/WSN/33(H1N1) with PA I38N substitution. The following applies: ref [3],[9]; cited from earlier work.
Assay [2] deals with recombinant A/Victoria/3/75(H3N2) with PA I38N substitution. The following applies: ref [3],[9]; cited from earlier work.
Assay [3] deals with NA (neuraminidase) of A/Yamagata/103/2024 (Influenza A virus, UniProt C3W5S3). It is filed as biochemical.
The target in assay [4] is NA (neuraminidase) of A/Yamagata/333/2023 (Influenza A virus, UniProt C3W5S3).

For the compound `O=C1c2c(O)c(=O)ccn2N([C@@H]2c3ccccc3SCc3c2ccc(F)c3F)[C@@H]2COCCN12` [Baloxavir, baloxavir acid], the “fold reduction in baloxavir susceptibility conferred by PA I38N substitution” value in assay [1] is 24 fold; in assay [2], 10 fold.

Take `CCC(CC)[C@H](NC(C)=O)[C@@H]1[C@H](O)[C@@H](C(=O)O)C[C@H]1N=C(N)N` [Peramivir, peramivir]: the results for the concentration for half-maximal inhibition (IC50) in assay [3] and in assay [4] were 0.11 nM and 0.08 nM, respectively.
